Values of other authors, collected in US20020042375A1, “Method of treating cancer” (priority 2000, published 2002).

Key:
prostate cancer cell = conditions: in vitro
LNCaP cells = conditions: exogenous administration
[1] = system: LNCaP prostate cancer cells
[2] = system: PC-3 prostate cancer cells; conditions: PC-3 cells

In the case of `CC(C(=O)O)c1cccc(C(=O)c2ccccc2)c1` (centres unmarked) [ketoprofen], the “prostate cancer cell apoptosis” value (prostate cancer cell) is listed as “induce prostate cancer cell apoptosis”.

For `CCCCC(C)(C)[C@H](O)/C=C/[C@H]1[C@H](O)CC(=O)[C@@H]1C/C=C\CCCC(=O)O` [dimethylprostaglandin E2], the proliferation in vitro (PC-3 cells; exogenous administration, PC-3 cells) is given as “increased proliferation” and the proliferation in vitro (LNCaP cells) is given as “increased proliferation”.

In the case of `COc1ccc2c(c1)c(CC(=O)O)c(C)n2C(=O)c1ccc(Cl)cc1` [indomethacin], the “prostate cancer cell apoptosis” value (prostate cancer cell) is listed as “induce prostate cancer cell apoptosis”.

For `CN1C(C(=O)Nc2ccccn2)=C(O)c2ccccc2S1(=O)=O` [piroxicam], the “prostate cancer cell apoptosis” value (prostate cancer cell) is listed as “induce prostate cancer cell apoptosis”.

In the case of `CC(C(=O)O)c1ccc(-c2ccccc2)c(F)c1` (centres unmarked) [flurbiprofen], the “prostate cancer cell apoptosis” value (prostate cancer cell) is listed as “induce prostate cancer cell apoptosis” and the PC-3 growth (PC-3 cells; in the dimethylprostaglandin E2 model) is listed as “inhibited PC-3 growth”.

In the case of `CS(=O)(=O)Nc1ccc([N+](=O)[O-])cc1OC1CCCCC1` [NS398], the “prostate cancer cell apoptosis” value (prostate cancer cell) is given as “induce prostate cancer cell apoptosis”, the apoptosis [1] is given as “induce apoptosis” and the apoptosis [2] is given as “induce apoptosis”.

In the case of `CC(=O)Oc1ccccc1C(=O)O` [aspirin], the “prostate cancer cell apoptosis” value (prostate cancer cell) is given as “induce prostate cancer cell apoptosis”.
